{
  "source": "patent EP4501917A1",
  "about": "“3,4-DIHYDROQUINOXALINE-2-CARBOXIMIDE DERIVATIVE COMPOUND AND PHARMACEUTICAL COMPOSITION COMPRISING SAME FOR PREVENTING OR TREATING CANCER DISEASE” (Daegu-Gyeongbuk Medical Innovation Foundation, priority 2022, dated 2023)",
  "key": {"HDAC8": {"molecular_target": "T1, HDAC8 (Homo sapiens, UniProt Q9BY41)", "T1 construct": "purchased BPS bioscience", "T1 sequence (Q9BY41 1-377)": "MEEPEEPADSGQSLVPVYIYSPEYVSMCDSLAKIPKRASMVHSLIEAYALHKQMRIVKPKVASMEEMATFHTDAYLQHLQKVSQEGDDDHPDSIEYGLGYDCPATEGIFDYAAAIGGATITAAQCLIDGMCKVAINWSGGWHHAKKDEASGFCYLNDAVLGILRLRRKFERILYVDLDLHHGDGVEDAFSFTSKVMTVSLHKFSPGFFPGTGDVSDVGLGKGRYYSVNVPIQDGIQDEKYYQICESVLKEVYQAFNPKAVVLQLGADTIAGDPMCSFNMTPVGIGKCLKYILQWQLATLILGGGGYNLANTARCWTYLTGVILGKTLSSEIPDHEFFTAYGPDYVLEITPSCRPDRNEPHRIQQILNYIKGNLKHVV", "experiment": "HDAC8 inhibitory activity analysis (in vitro), RFU analysis, HDAC Fluorogenic assay kit", "assay_type": "biochemical", "conditions": "for RFU (%): compound final concentration 10 µM, HDAC substrate 2A 20 µM, positive control (1% DMSO) set to 100, lower = more inhibition; for inhibitory activity against HDAC8: result in words, summary of Table 2, 10 µM", "experimental": "The compound of the Example was diluted to 1 mM (1% DMSO concentration) using DMSO to obtain a final concentration of 10 µM, and prepared by diluting 1/10 with assay buffer. In a 96-well black round-bottom plate, 5 µL of the diluted compound of the Example, 5 µL of the diluted HDAC substrate 2A, 5 µL of BSA (1 mg/mL), 5 µL of the HDAC8 enzyme diluted to an appropriate concentration, and 30 µL of assay buffer were added, and the enzyme reaction was performed at 37°C for 30 minutes. […] Afterwards, 50 µL of 2X HDAC developer was added to each well. After reacting for 15 minutes at room temperature, the fluorescence values at excitation wavelengths of 350-380 nm and emission wavelengths of 440-460 nm were measured using a microplate reader (Synergy Neo)."}, "[1]": {"test_system": "PC-3 prostate cancer cells", "experiment": "Prostate cancer cell growth inhibition, CCK-8 assay", "assay_type": "cell-based, human", "conditions": "PC-3 cells, FIG. 1, result in words", "description": "PC-3, a human-derived prostate cancer cell line, was cultured with RPMI1640 (10% fetal bovine serum, 1% Penicillin Streptomycin) culture medium at 37°C, 5% CO2 condition. All cells in the experiment were subcultured when they reached a confluency of approximately 80% to 90%, and only cells that had not passed 20 passages were used.\nAfter culturing, 10 µL CCK-8 reagent was added and the absorbance was measured after 1 hour. The absorbance was measured at 450 nm using a microplate reader [BMG Labtech (Offenburg, Germany)]."}, "Liver cancer cells Huh-7": {"test_system": "Liver cancer cells Huh-7", "experiment": "Liver cancer cell growth inhibition, CellTiter-Glo Luminescent Cell Viability Assay", "assay_type": "cell-based", "conditions": "Huh-7 cells, various concentrations, day 1, FIG. 6; result in words", "description": "In addition, an analysis of liver cancer growth inhibitory activity was performed. Liver cancer cells Huh-7 cells were dispensed in a 96-well plate at 1 × 10^4 cells/ml, and after 20 hours, PCI34051, Example 27, and Example 35 were added at various concentrations, and cultured for 24 and 48 hours at 37°C in a 5% CO2 atmosphere. After culturing, 100 µl CellTiter-Glo Luminescent Cell Viability Assay reagent was added and the luminescence signal was measured after 0.5-1 hour. The luminescence signal was measured using IVIS [PerkinElmer, (Waltham, USA)]."}},
  "data": [
    {"smiles": "Cc1cc2nc(C(=O)NCc3ccc(F)cc3)c(=O)n(C[C@H](O)[C@H](O)[C@H](O)CO)c2cc1C", "note": "[Example 4, N-(4-fluorobenzyl)-6,7-dimethyl-3-oxo-4-((2S,3S,4R)-2,3,4,5-tetrahydroxypentyl)-3,4-dihydroquinoxaline-2-carboxamide]", "values": [
      {"measurement": "RFU (%)", "setting": "HDAC8", "result": 85.71, "unit": "%"}
    ]},
    {"smiles": "Cc1cc2nc(C(=O)NCc3cc(Cl)cc(Cl)c3)c(=O)n(C[C@H](O)[C@H](O)[C@H](O)CO)c2cc1C", "note": "[Example 7, N-(3,5-dichlorobenzyl)-6,7-dimethyl-3-oxo-4-((2S,3S,4R)-2,3,4,5-tetrahydroxypentyl)-3,4-dihydroquinoxaline-2-carboxamide]", "values": [
      {"measurement": "RFU (%)", "setting": "HDAC8", "result": 54.79, "unit": "%"}
    ]},
    {"smiles": "Cc1cc2nc(C(=O)NCc3ccc(Cl)c(Cl)c3)c(=O)n(C[C@H](O)[C@H](O)[C@H](O)CO)c2cc1C", "note": "[Example 8, N-(3,4-dichlorobenzyl)-6,7-dimethyl-3-oxo-4-((2S,3S,4R)-2,3,4,5-tetrahydroxypentyl)-3,4-dihydroquinoxaline-2-carboxamide]", "values": [
      {"measurement": "RFU (%)", "setting": "HDAC8", "result": 85.37, "unit": "%"}
    ]},
    {"smiles": "Cc1cc2nc(C(=O)NCCc3ccc(Cl)cc3Cl)c(=O)n(C[C@H](O)[C@H](O)[C@H](O)CO)c2cc1C", "note": "[Example 9, N-(2,4-dichlorophenethyl)-6,7-dimethyl-3-oxo-4-((2S,3S,4R)-2,3,4,5-tetrahydroxypentyl)-3,4-dihydroquinoxaline-2-carboxamide]", "values": [
      {"measurement": "RFU (%)", "setting": "HDAC8", "result": 66.28, "unit": "%"}
    ]},
    {"smiles": "Cc1cc2nc(C(=O)Nc3cc(-c4ccc(Br)cc4)no3)c(=O)n(C[C@H](O)[C@H](O)[C@H](O)CO)c2cc1C", "note": "[Example 10, N-(3-(4-bromophenyl)isoxazol-5-yl)-6,7-dimethyl-3-oxo-4-((2S,3S,4R)-2,3,4,5-tetrahydroxypentyl)-3,4-dihydroquinoxaline-2-carboxamide]", "values": [
      {"measurement": "RFU (%)", "setting": "HDAC8", "result": 16.61, "unit": "%"},
      {"measurement": "inhibitory activity against HDAC8", "setting": "HDAC8", "result": "inhibitory activity similar to TSA or SAHA"}
    ]},
    {"smiles": "Cc1cc2nc(C(=O)Nc3nnc(-c4ccc(Br)cc4)s3)c(=O)n(C[C@H](O)[C@H](O)[C@H](O)CO)c2cc1C", "note": "[Example 11, N-(5-(4-bromophenyl)-1,3,4-thiadiazol-2-yl)-6,7-dimethyl-3-oxo-4-((2S,3S,4R)-2,3,4,5-tetrahydroxypentyl)-3,4-dihydroquinoxaline-2-carboxamide]", "values": [
      {"measurement": "RFU (%)", "setting": "HDAC8", "result": 63.24, "unit": "%"}
    ]},
    {"smiles": "Cc1cc2nc(C(=O)Nc3cc(-c4ccc(Br)cc4)n[nH]3)c(=O)n(C[C@H](O)[C@H](O)[C@H](O)CO)c2cc1C", "note": "[Example 12, N-(3-(4-bromophenyl)-1H-pyrazol-5-yl)-6,7-dimethyl-3-oxo-4-((2S,3S,4R)-2,3,4,5-tetrahydroxypentyl)-3,4-dihydroquinoxaline-2-carboxamide]", "values": [
      {"measurement": "RFU (%)", "setting": "HDAC8", "result": 58.97, "unit": "%"}
    ]},
    {"smiles": "Cc1cc2nc(C(=O)NCc3nc4ccccc4[nH]3)c(=O)n(C[C@H](O)[C@H](O)[C@H](O)CO)c2cc1C", "note": "[Example 24, N-((1H-benzo[d]imidazol-2-yl)methyl)-6,7-dimethyl-3-oxo-4-((2S,3S,4R)-2,3,4,5-tetrahydroxypentyl)-3,4-dihydroquinoxaline-2-carboxamide]", "values": [
      {"measurement": "RFU (%)", "setting": "HDAC8", "result": 42.03, "unit": "%"}
    ]},
    {"smiles": "COC(=O)C1CCC(NC(=O)c2nc3cc(C)c(C)cc3n(C[C@H](O)[C@H](O)[C@H](O)CO)c2=O)C1", "note": "(stereo partly drawn) [Example 33, methyl 3-(6,7-dimethyl-3-oxo-4-((2S,3S,4R)-2,3,4,5-tetrahydroxypentyl)-3,4-dihydroquinoxaline-2-carboxamido)cyclopentane-1-carboxylate]", "values": [
      {"measurement": "RFU (%)", "setting": "HDAC8", "result": 69.48, "unit": "%"}
    ]},
    {"smiles": "Cc1cc2nc(C(=O)NCc3ccc4[nH]cnc4c3)c(=O)n(C[C@H](O)[C@H](O)[C@H](O)CO)c2cc1C", "note": "[Example 34, N-((1H-benzo[d]imidazol-5-yl)methyl)-6,7-dimethyl-3-oxo-4-((2S,3S,4R)-2,3,4,5-tetrahydroxypentyl)-3,4-dihydroquinoxaline-2-carboxamide]", "values": [
      {"measurement": "RFU (%)", "setting": "HDAC8", "result": 34.05, "unit": "%"},
      {"measurement": "inhibitory activity against HDAC8", "setting": "HDAC8", "result": "inhibitory activity similar to TSA or SAHA"}
    ]},
    {"smiles": "Cc1cc2nc(C(=O)Nc3nc4c(F)cccc4[nH]3)c(=O)n(C[C@H](O)[C@H](O)[C@H](O)CO)c2cc1C", "note": "[Example 35, N-(4-fluoro-1H-benzo[d]imidazol-2-yl)-6,7-dimethyl-3-oxo-4-((2S,3S,4R)-2,3,4,5-tetrahydroxypentyl)-3,4-dihydroquinoxaline-2-carboxamide]", "values": [
      {"measurement": "cell viability", "setting": "[1]; after 24 hours", "result": "concentration-dependent inhibition of cancer cell viability"},
      {"measurement": "cell viability", "setting": "[1]; after 48 hours", "result": "cell viability was restored"},
      {"measurement": "cell viability", "setting": "Liver cancer cells Huh-7", "result": "concentration-dependent inhibition of cancer cell viability"},
      {"measurement": "RFU (%)", "setting": "HDAC8", "result": 8.23, "unit": "%"},
      {"measurement": "inhibitory activity against HDAC8", "setting": "HDAC8", "result": "inhibitory activity similar to TSA or SAHA"}
    ]},
    {"smiles": "Cc1cc2nc(C(=O)NCc3ccc(C(=O)NO)cc3)c(=O)n(C[C@H](O)[C@H](O)[C@H](O)CO)c2cc1C", "note": "[Example 47, N-(4-(hydroxycarbamoyl)benzyl)-6,7-dimethyl-3-oxo-4-((2S,3S,4R)-2,3,4,5-tetrahydroxypentyl)-3,4-dihydroquinoxaline-2-carboxamide]", "values": [
      {"measurement": "RFU (%)", "setting": "HDAC8", "result": 53.58, "unit": "%"}
    ]},
    {"smiles": "Cc1cc2nc(C(=O)Nc3ccc(C(=O)NO)cc3)c(=O)n(C[C@H](O)[C@H](O)[C@H](O)CO)c2cc1C", "note": "[Example 48, N-(4-(hydroxycarbamoyl)phenyl)-6,7-dimethyl-3-oxo-4-((2S,3S,4R)-2,3,4,5-tetrahydroxypentyl)-3,4-dihydroquinoxaline-2-carboxamide]", "values": [
      {"measurement": "RFU (%)", "setting": "HDAC8", "result": 10.48, "unit": "%"},
      {"measurement": "inhibitory activity against HDAC8", "setting": "HDAC8", "result": "inhibitory activity similar to TSA or SAHA"}
    ]},
    {"smiles": "Cc1cc2nc(C(=O)NCc3ccc(CC(=O)NO)cc3)c(=O)n(C[C@H](O)[C@H](O)[C@H](O)CO)c2cc1C", "note": "[Example 49, N-(4-(2-(hydroxyamino)-2-oxoethyl)benzyl)-6,7-dimethyl-3-oxo-4-((2S,3S,4R)-2,3,4,5-tetrahydroxypentyl)-3,4-dihydroquinoxaline-2-carboxamide]", "values": [
      {"measurement": "RFU (%)", "setting": "HDAC8", "result": 35.15, "unit": "%"},
      {"measurement": "inhibitory activity against HDAC8", "setting": "HDAC8", "result": "inhibitory activity similar to TSA or SAHA"}
    ]},
    {"smiles": "Cc1cc2nc(C(=O)NCc3cccc(C(=O)NO)c3)c(=O)n(C[C@H](O)[C@H](O)[C@H](O)CO)c2cc1C", "note": "[Example 50, N-(3-(hydroxycarbamoyl)benzyl)-6,7-dimethyl-3-oxo-4-((2S,3S,4R)-2,3,4,5-tetrahydroxypentyl)-3,4-dihydroquinoxaline-2-carboxamide]", "values": [
      {"measurement": "RFU (%)", "setting": "HDAC8", "result": 51.23, "unit": "%"}
    ]},
    {"smiles": "Cc1cc2nc(C(=O)Nc3cc(C(=O)NO)ccc3C)c(=O)n(C[C@H](O)[C@H](O)[C@H](O)CO)c2cc1C", "note": "[Example 51, N-(5-(hydroxycarbamoyl)-2-methylphenyl)-6,7-dimethyl-3-oxo-4-((2S,3S,4R)-2,3,4,5-tetrahydroxypentyl)-3,4-dihydroquinoxaline-2-carboxamide]", "values": [
      {"measurement": "RFU (%)", "setting": "HDAC8", "result": 5.81, "unit": "%"},
      {"measurement": "inhibitory activity against HDAC8", "setting": "HDAC8", "result": "inhibitory activity similar to TSA or SAHA"}
    ]},
    {"smiles": "Cc1cc2nc(C(=O)NC3CCC(C(=O)NO)C3)c(=O)n(C[C@H](O)[C@H](O)[C@H](O)CO)c2cc1C", "note": "(stereo partly drawn) [Example 52, N-(3-(hydroxycarbamoyl)cyclopentyl)-6,7-dimethyl-3-oxo-4-((2S,3S,4R)-2,3,4,5-tetrahydroxypentyl)-3,4-dihydroquinoxaline-2-carboxamide]", "values": [
      {"measurement": "RFU (%)", "setting": "HDAC8", "result": 41.96, "unit": "%"}
    ]},
    {"smiles": "COc1ccc(Cn2ccc3ccc(C(=O)NO)cc32)cc1", "note": "[PCI-34051, N-hydroxy-1-(4-methoxybenzyl)-1H-indole-6-carboxamide, reference compound]", "values": [
      {"measurement": "cell viability", "setting": "Liver cancer cells Huh-7", "result": "concentration-dependent inhibition of cancer cell viability"},
      {"measurement": "RFU (%)", "setting": "HDAC8", "result": 1.86, "unit": "%"}
    ]},
    {"smiles": "O=C(CCCCCCC(=O)Nc1ccccc1)NO", "note": "[SAHA, suberoylanilide hydroxamic acid, reference compound]", "values": [
      {"measurement": "RFU (%)", "setting": "HDAC8", "result": 38.57, "unit": "%"}
    ]}
  ]
}
